Experimental findings from PubChem BioAssay AID1249 (Columbia University Molecular Screening Center, 2008) are described below.

Calls of active or inactive are those of the source. No rule for the calls is given here.

A short description of one assay: modifiers of cytoskeleton assembly, confirmation, imaging, high-content imaging, retest and dose response (AID 1249).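 Also: compound exposure lasted 24 h before fixation.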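 As to inhibition: plate controls were untreated cells for no effect and reference compound treated cells for full effect.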 To be noted: cell-based imaging, cytoskeleton assembly phenotype, high content; at 2 µM; stronger effect = higher value.
By inhibition is commonly meant the relative decrease from the control value, in per cent. Take `Cc1ccccc1-c1cc(-c2ccccc2O)on1`: the inhibition was -5.9% (inactive).

In the case of `CCOc1ccc(-n2c(SCC(=O)Nc3ccc(OC)cc3)nc3c(c2=O)SCC3)cc1`, the inhibition is 7.9% (inactive).

Turning to `CCOc1cc(S(=O)(=O)Nc2ccccc2CC)ccc1Cl`, the inhibition was -1.7% (inactive).

With `Cc1ccc(C(=O)NCCCn2ccnc2)cn1`, the inhibition is 1.3% (inactive).

For the compound `Cc1ccc2[nH]c3c(c2c1)CCC3=O`, the inhibition is -8.6% (inactive).

With `CCn1c(Cc2ccccc2)nnc1SCC(=O)NC1CC1`, the inhibition is 10.7% (inactive).

With `Cc1c(CCO)c(=O)n(-c2ccccc2)n1S(=O)(=O)c1ccc(Cl)cc1`, the inhibition was -11% (inactive).

For `CCc1ccc2oc(-c3cc(N)ccc3O)nc2c1`, the inhibition was -11.6% (inactive).

As for `CCc1cccc(CC)c1NC(=O)C1SC(=Nc2ccccc2C)C(c2nc3ccccc3s2)=C1N` (centres undefined), the inhibition was 5% (inactive).

In the case of `C/C(Cl)=C\Cn1c(NCCCn2ccnc2)nc2c1c(=O)n(C)c(=O)n2C`, the inhibition was -1.5% (inactive).

As for `COc1cccc(C(=O)Nc2cccc(-c3nc4ncccc4o3)c2C)c1`, the inhibition was 1.2% (inactive).

As to `CCOc1ccccc1C(=O)NCCC(=O)O`, the inhibition was 10.6% (inactive).

Turning to `CCCCCc1ccc(-c2ccc(=O)[nH]n2)cc1`, the inhibition was -6.9% (inactive).

In the case of `Cc1cc(C)cc(OCC(=O)Nc2nonc2NC(=O)COc2cc(C)cc(C)c2)c1`, the inhibition was -12% (inactive).

Take `CC(C(=O)Nc1ccc(Br)cc1C(=O)c1ccccc1)N1CCOCC1` (centres undefined): the inhibition was 6% (inactive).

With `COC(=O)COc1ccc(=O)n(-c2ccccc2)n1`, the inhibition was -8.8% (inactive).

Take `CC1C(c2ccccc2)C(C#N)(C#N)C2(C#N)C(=O)NC1(N)C2C` (centres undefined): the inhibition was 0.4% (inactive).

Take `O=C(CCN1C(=O)C2C3C=CC(C3)C2C1=O)NCC1CCCO1` (centres undefined): the inhibition is 9.9% (inactive).

Turning to `Cc1nccn1-c1ccc(C(F)(F)F)cc1NC=O`, the inhibition was -12.8% (inactive).

Consider `S=c1[nH]nc(COc2ccc3c(c2)OCO3)n1-c1ccccc1`, for which the inhibition is 6.4% (inactive).

For the compound `O=C1CC(c2ccccc2)Cc2nc3ncnn3cc21` (centres undefined), the inhibition was 2.1% (inactive).

Take `CC(C)(C)NC(=O)C1N(c2cccnc2)C(=O)C2C(C(=O)Nc3ccccc3F)C3(C)C=CC21O3` (centres undefined): the inhibition is -29.5% (inactive).

Regarding `CCOc1ccccc1/C=N/Nc1ccccc1[N+](=O)[O-]`, the inhibition was -0.7% (inactive).

With `Cc1ccc(NC(=O)c2oc3c(c2C)C(=O)CC(C)(C)C3)cc1`, the inhibition is -7.9% (inactive).

As for `CC1CCN(C(=O)C2c3ccccc3C(=O)N3CCc4ccccc4C23)CC1` (centres undefined), the inhibition is -3.8% (inactive).

With `Cc1cccc(NC(=O)CSc2nc3ccc(NC(=O)CSc4nnnn4-c4ccccc4)cc3s2)c1C`, the inhibition was 2.9% (inactive).

Take `COc1ccc(S(=O)(=O)n2ccc(-c3ccc(OCCN(C)c4ccccn4)cc3)n2)cc1`: the inhibition is 11.9% (inactive).

Turning to `Cc1ccc(-c2cc(C(=O)NCc3ccccn3)no2)cc1`, the inhibition is 3.6% (inactive).

Turning to `CCOC(=O)C1=C(SCC)c2cc3c(n2C1=O)CCCC3`, the inhibition was 8.4% (inactive).

As for `Cc1ccc(-c2noc(CSc3nc(N)cc(N)n3)n2)cc1`, the inhibition is -8.4% (inactive).

For `O=C(OCn1ncc(Br)c(Br)c1=O)c1c(F)cccc1F`, the inhibition is -3.7% (inactive).

`Cc1ccc(-c2nn(C(C)(C)C)c3ncnc(N)c23)cc1`: the inhibition was -7.8% (inactive).

For `CCC(C)Oc1cccc(OCCCCN2C(=O)NC(C)(C)C2=O)c1` (centres undefined), the inhibition was -13.9% (inactive).

Take `CCOc1cc(/C=C2/C(=O)N(c3ccccc3)N=C2C)ccc1OC(=O)c1ccco1`: the inhibition was 4.7% (inactive).

As for `O=C(Oc1ccc2ccc(=O)oc2c1)N1CCOCC1`, the inhibition is -7.8% (inactive).

For the compound `CCNc1nc(OC)nc(Oc2ccc(C(=O)OC)cc2)n1`, the inhibition is -22.8% (inactive).

On to `Cc1nc(-c2cccnc2)sc1C(=O)Nc1cccc(C(F)(F)F)c1`, for which the inhibition is 2.2% (inactive).

Consider `COc1cc(/C=N/NC(=O)Nc2ccccc2)ccc1OCCOc1ccccc1C`, for which the inhibition is 3.1% (inactive).

With `CCOC(=O)C1CCN(C(=O)c2cn(CCOC)c(=O)c3c2c2ccccc2n3C)CC1`, the inhibition was -1.6% (inactive).

For `CCn1c(CN2CCN(c3ccc(Cl)cc3)CC2)nc2ccccc21`, the inhibition is -1% (inactive).

As for `C(=N\Nc1nc2ccccc2s1)/c1cccs1`, the inhibition was -5.8% (inactive).

In the case of `O=C(NCc1ccco1)C1CC(=O)N(c2ccc(F)cc2)C1` (centres undefined), the inhibition was 2.5% (inactive).

On to `O=C(NCc1cccs1)c1nc2c(nnn2Cc2ccccc2Cl)c(=O)[nH]1`, for which the inhibition is -3.6% (inactive).

Regarding `CCOC(=O)c1oc2ccccc2c1NC(=O)Cc1cccs1`, the inhibition is 0.3% (inactive).

`NC(=O)COC(=O)CCCc1c[nH]c2ccccc12`: the inhibition was 2.3% (inactive).

Regarding `CN=c1sc2ccccc2n1CC(O)COc1ccccc1` (centres undefined), the inhibition is -6.5% (inactive).

Consider `O=C(NC1CCCCC1)N(CCN1CCOCC1)Cc1cc2cc3c(cc2[nH]c1=O)OCCO3`, for which the inhibition was 32.9% (inactive).

For the compound `CC(C)C(=O)N1CCN(c2nc(-c3ccccc3)c3c(c2C#N)CC(C)(C)OC3)CC1`, the inhibition was -5.6% (inactive).

On to `COc1ccc(OC)c(C2CC(=O)c3c([nH]c(C(=O)OC(C)C)c3C)C2)c1` (centres undefined), for which the inhibition is 8.4% (inactive).

On to `Cc1ccccc1CN1C(=O)C2(OCCCO2)c2ccccc21`, for which the inhibition was 3.7% (inactive).

For the compound `CS(=O)(=O)N(CC(=O)NCc1ccccc1Cl)Cc1ccccc1`, the inhibition is 0% (inactive).

For `COC(=O)c1cccc(S(=O)(=O)N(Cc2ccco2)Cc2cc3ccc(OC)cc3[nH]c2=O)c1`, the inhibition is -3.3% (inactive).

On to `CN(CC(=O)NCc1ccncc1)S(=O)(=O)c1ccc(F)cc1`, for which the inhibition was 2.2% (inactive).

On to `O=C1Nc2ccc(S(=O)(=O)N3CCOCC3)c3cccc1c23`, for which the inhibition is 0.5% (inactive).

In the case of `COc1ccccc1-c1cn(S(=O)(=O)c2ccc(C)cc2)nc1N`, the inhibition is 7.9% (inactive).

As for `COc1cc2[nH]cc(C(=O)NCCc3ccccc3)c(=O)c2cc1OC`, the inhibition was 1.5% (inactive).

Regarding `Cc1oc2cc3c(C(=O)N4CCCCC4)c(C)oc3cc2c1C(=O)N1CCCCC1`, the inhibition is -4.7% (inactive).

`COc1cc2c(cc1OC)CN(C(=O)C(C)(C)C)CC2`: the inhibition was -1.3% (inactive).

For the compound `CSCCC(NC(=O)OCc1ccccc1)C(=O)O` (centres undefined), the inhibition was -2% (inactive).

As for `Clc1ccc2nc(CSc3nc4ccccc4o3)cn2c1`, the inhibition was 14.4% (inactive).

With `CCOC(=O)c1cnc(-n2nc(C)cc2C)nc1N1CCOCC1`, the inhibition is 8.4% (inactive).

`O=C(NC(Cc1c[nH]c2ccccc12)C(=O)O)c1ccco1` (centres undefined): the inhibition was -3% (inactive).

For `COc1ccc(S(=O)(=O)N2CCCC2C(=O)Nc2ccc(C)cc2)cc1` (centres undefined), the inhibition was 3.2% (inactive).

On to `CCOC(=O)c1cnn(-c2nc(-c3ccc(C)cc3)cs2)c1C(F)(F)F`, for which the inhibition was -7.1% (inactive).

For the compound `COCCNC(=O)C(c1cccs1)N(Cc1cccs1)C(=O)Cn1nnc2ccccc21` (centres undefined), the inhibition is -4.6% (inactive).

Consider `Cc1cc(NC(=O)CSc2nnnn2C)n(-c2ccccc2)n1`, for which the inhibition was -7.2% (inactive).

On to `CCC(=O)Nc1cccc(NC(=O)c2cc3ccccc3o2)c1`, for which the inhibition is -5.6% (inactive).

Turning to `COC(=O)c1cscc1NC(C)=O`, the inhibition is 13.2% (inactive).

Take `COc1ccc(-c2nnc(SCC(=O)N3CCCc4ccccc43)o2)cc1OC`: the inhibition is -16.4% (inactive).

`COC(=O)c1[nH]c2cc(OC)ccc2c1NC(=O)CN1CCC(C(N)=O)(N2CCCCC2)CC1`: the inhibition is 3.6% (inactive).

As for `CCCC(C(=O)NC1CCCC1)N(CCCN1CCOCC1)C(=O)c1snc(C(N)=O)c1N` (centres undefined), the inhibition is -2.3% (inactive).

Regarding `CCOC(=O)Cn1c(SC)nc2sc3c(c2c1=O)CC(C)(C)OC3`, the inhibition is -24.8% (inactive).

On to `CC1(C)CC(=O)c2cc(OCC(=O)NCCCN3CCN(c4ccc(F)cc4)CC3)ccc2O1`, for which the inhibition is 8.9% (inactive).

Turning to `Cc1ccc(CC2S/C(=C(/C#N)C(=O)NCc3ccco3)N(c3ccccc3)C2=O)cc1` (centres undefined), the inhibition was 2.8% (inactive).

On to `CC(C)CCN1CC(C(=O)NCCC2=CCCCC2)CC1=O` (centres undefined), for which the inhibition was -12.9% (inactive).

On to `O=C(OCC(=O)N1CCN(c2ccccc2)CC1)c1ccc2ncsc2c1`, for which the inhibition was 0.2% (inactive).

Consider `Cn1nc(C(F)(F)F)c(C(=O)Nc2ccc(F)cc2F)c1Sc1ccc(C(F)(F)F)cc1`, for which the inhibition is 13.2% (inactive).

In the case of `CCOc1ccc2nc(C)cc(Nc3ccc4c(c3)OCCO4)c2c1`, the inhibition was 7.5% (inactive).

Consider `Oc1ccc(N=Nc2n[nH]c(-c3ccc(Cl)cc3)n2)cc1`, for which the inhibition was -2.5% (inactive).

For the compound `OCCN=C1CCCc2c1[nH]c1ccc(Br)cc21`, the inhibition is -20.7% (inactive).

For `CCn1ccnc1C(O)c1cccc(OC)c1` (centres undefined), the inhibition was 6.1% (inactive).

Consider `COCCCNC(=O)c1cn(C)c(=O)c2cc(OC)c(OC)cc12`, for which the inhibition is -7.3% (inactive).

With `O=C(N/N=C/c1ccncc1)c1ccccc1`, the inhibition was 1.1% (inactive).

`COc1cccc(OC)c1NC(=O)CN1CCC(NC(=O)c2cccc(F)c2)CC1`: the inhibition was 0.4% (inactive).

On to `O=C(CN1CCCCCC1=O)OCc1ncc(-c2ccccc2)o1`, for which the inhibition is -11.1% (inactive).

`O=C(c1ccc([N+](=O)[O-])cc1)N(Cc1ccc(Cl)cc1)N1C(=O)CCCC1=O`: the inhibition was -0.3% (inactive).

With `O=C1c2oc3ccccc3c(=O)c2C(c2cccc(F)c2)N1CCCO` (centres undefined), the inhibition was 6.3% (inactive).

Take `CC(CCc1ccccc1)NC(=O)c1ccc(Br)o1` (centres undefined): the inhibition was -0.1% (inactive).

The assay is the same for the next values; noted with them: cell-based imaging, cytoskeleton assembly phenotype, high content; cell count; at 10 µM; stronger effect = lower value.
The compound `COc1cc(C2C(C#N)=C(N)Oc3cc(N(C)C)ccc32)cc2c1OCO2` (centres undefined) yielded a cell count of 39.3%.
